Data published in patent US20110098240A1, “PHARMACEUTICAL COMPOSITION COMPRISING A SGLT2 INHIBITOR IN COMBINATION WITH A DPP-IV INHIBITOR” (BOEHRINGER INGELHEIM INTERNATIONAL GMBH, priority 2007, published 2011).

Assays:
[1] = metformin on its own, in the diabetic; cited from earlier work
[2] = oral glucose tolerance test in overnight fasted rats; format: in vivo, male Sprague Dawley rats (Crl:CD(SD)); settings: single oral dose 30 min before oral glucose load 2 g/kg; Cpd. A 1 mg/kg, dapagliflozin 0.3 mg/kg, combination at same doses; non-diabetic rats, n=5/group; blood glucose up to 120 min
Experimental: The following example show the beneficial effect on glycemic control of the combination of a SGLT2 inhibitor and a DPP IV inhibitor according to the present invention as compared to the respective monotherapies. All experimental protocols concerning the use of laboratory animals are reviewed by a federal Ethics Committee and approved by governmental authorities. According to this example an oral glucose tolerance test is performed in overnight fasted male Sprague Dawley rats (Crl:CD(SD)) with a body weight of about 200 g. A pre-dose blood sample is obtained by tail bleed. Blood glucose is measured with a glucometer, and the animals are randomized for blood glucose (n=5/group). Subsequently, the groups receive a single oral administration of either vehicle alone (0.5% aqueous hydroxyethylcellulose containing 0.015% Polysorbat 80) or vehicle containing either the SGLT2 inhibitor or the DPPIV inhibitor or the combination of the SGLT2 inhibitor with the DPPIV inhibitor. The animals receive an oral glucose load (2 g/kg) 30 min after compound administration. Blood glucose is measured in tail blood 30 min, 60 min, 90 min, and 120 min after the glucose challenge. Glucose excursion is quantified by calculating the reactive glucose AUC. The data are presented as mean±S.E.M. Statistical comparisons are conducted by Student's t test.
“Cpd. […]

## CN(C)C(=N)N=C(N)N [metformin]
[1]
  average improvement in the HbA1c value: 1.0-1.5%

## CC#CCn1c(N2CCC[C@@H](N)C2)nc2c1c(=O)n(Cc1nc(C)c3ccccc3n1)c(=O)n2C [Cpd. A, 1-[(4-methyl-quinazolin-2-yl)methyl]-3-methyl-7-(2-butyn-1-yl)-8-(3-(R)-amino-piperidin-1-yl)-xanthine]
[2]
  reduction of glucose excursion (reactive glucose AUC): 25%

## CCOc1ccc(Cc2cc([C@@H]3O[C@H](CO)[C@@H](O)[C@H](O)[C@H]3O)ccc2Cl)cc1 [dapagliflozin, Dapagliflozin]
[2]
  reduction of glucose excursion (reactive glucose AUC): 31%
